The first experiment concerns the target T1, CFTR (Homo sapiens, UniProt P13569).
T1 construct: endogenous in cells; host or cells: T84 human colonic cells (ECACC)
In words: T84 assay (FLIPR membrane potential dye, forskolin/IBMX-stimulated CFTR channel activity). Format: cell-based. Particulars: imidazole and triazole-containing compounds (Tables 13, 14, 14′), read-out: IC50 (μM) (T84 assay). The method, boiled down:
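Fluorescence from a membrane potential dye in T84 monolayers (HBSS with 10 mM Hepes) is followed each second for 150 s. Cells are exposed to test compound during the 45 min dye loading, then challenged with forskolin (10 μM) and IBMX (100 μM) to open CFTR. Inhibitors suppress the depolarization-driven fluorescence increase.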
T1 sequence (P13569 whole entry): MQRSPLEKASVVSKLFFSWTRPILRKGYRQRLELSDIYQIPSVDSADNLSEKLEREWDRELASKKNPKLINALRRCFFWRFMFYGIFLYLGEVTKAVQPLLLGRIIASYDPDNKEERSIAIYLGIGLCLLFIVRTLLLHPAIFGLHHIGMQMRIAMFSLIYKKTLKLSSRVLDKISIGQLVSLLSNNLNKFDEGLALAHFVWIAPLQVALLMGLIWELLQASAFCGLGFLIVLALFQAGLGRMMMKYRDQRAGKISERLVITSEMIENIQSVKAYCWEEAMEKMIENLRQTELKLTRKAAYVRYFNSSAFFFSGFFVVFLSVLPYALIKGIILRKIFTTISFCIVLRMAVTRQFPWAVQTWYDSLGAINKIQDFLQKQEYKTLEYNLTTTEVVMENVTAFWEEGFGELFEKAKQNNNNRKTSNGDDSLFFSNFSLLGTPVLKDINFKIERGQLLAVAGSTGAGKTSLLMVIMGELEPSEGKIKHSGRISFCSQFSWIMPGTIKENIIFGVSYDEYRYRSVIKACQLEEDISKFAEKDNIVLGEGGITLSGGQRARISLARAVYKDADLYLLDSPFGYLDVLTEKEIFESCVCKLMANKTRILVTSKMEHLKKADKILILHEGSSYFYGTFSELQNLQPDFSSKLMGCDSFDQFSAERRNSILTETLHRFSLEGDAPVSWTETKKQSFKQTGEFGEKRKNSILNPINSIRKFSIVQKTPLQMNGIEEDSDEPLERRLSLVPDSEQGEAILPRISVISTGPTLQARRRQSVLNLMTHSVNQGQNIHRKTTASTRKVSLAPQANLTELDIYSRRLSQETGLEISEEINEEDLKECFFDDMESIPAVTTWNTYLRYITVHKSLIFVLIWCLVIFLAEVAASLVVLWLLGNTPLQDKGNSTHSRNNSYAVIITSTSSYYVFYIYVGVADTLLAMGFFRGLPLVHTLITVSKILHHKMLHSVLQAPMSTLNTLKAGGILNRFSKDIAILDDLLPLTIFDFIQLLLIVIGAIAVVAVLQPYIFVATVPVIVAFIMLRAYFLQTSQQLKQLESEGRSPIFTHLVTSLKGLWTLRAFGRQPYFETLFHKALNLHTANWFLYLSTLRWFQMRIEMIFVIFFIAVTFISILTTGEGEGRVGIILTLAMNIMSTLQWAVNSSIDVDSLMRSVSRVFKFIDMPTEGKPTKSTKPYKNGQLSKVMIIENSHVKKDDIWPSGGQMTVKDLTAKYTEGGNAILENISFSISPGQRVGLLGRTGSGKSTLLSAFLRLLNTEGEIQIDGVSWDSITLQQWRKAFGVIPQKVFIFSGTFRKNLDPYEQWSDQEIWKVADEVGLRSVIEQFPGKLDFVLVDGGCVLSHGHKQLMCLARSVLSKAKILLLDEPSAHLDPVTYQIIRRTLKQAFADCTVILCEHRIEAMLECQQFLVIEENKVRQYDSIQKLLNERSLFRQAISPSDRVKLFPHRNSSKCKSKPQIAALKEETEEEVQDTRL
`O=C(NCc1ccc(Cl)cc1)c1ncn(-c2cc(Cl)c(O)c(Cl)c2)n1` [48i, N-(4-chlorobenzyl)-1-(3,5-dichloro-4-hydroxyphenyl)-1H-1,2,4-triazole-3-carboxamide]: the IC50 (as a rule, the concentration needed to halve the response being measured) came to 8.67 µM.

Turning to `C=CCN(Cc1ccc(C(C)C)cc1)C(=O)c1ncn(-c2cc(Cl)c(O)c(Cl)c2)n1` [101i, N-allyl-1-(3,5-dichloro-4-hydroxyphenyl)-N-(4-isopropylbenzyl)-1H-1,2,4-triazole-3-carboxamide], the IC50 is 0.76 µM.

`COCCOCCOCCOCCOCCOCCOCCOCCON(Cc1ccc(Oc2ccccc2)cc1)C(=O)c1ncn(-c2cc(Cl)c(O)c(Cl)c2)n1` [121i, N-(2,5,8,11,14,17,20,23-octaoxapentacosan-25-yloxy)-1-(3,5-dichloro-4-hydroxyphenyl)-N-(4-phenoxybenzyl)-1H-1,2,4-triazole-3-carboxamide]: the IC50 was 12.5 µM.

Staying with this experiment, now noted: isoxazole-containing compounds (Table 10, 10′, 11, 11′), read-out: IC50.
As to `CN(Cc1cccc(C(F)(F)F)c1)C(=O)c1cc(-c2cc(Cl)c(O)c(Cl)c2)on1` [6g, 5-(3,5-dichloro-4-hydroxyphenyl)-N-methyl-N-(3-(trifluoromethyl)benzyl)isoxazole-3-carboxamide], the IC50 was found to be 7.02 µM.

The same experiment, now with this note: oxadiazole-containing compounds (a series), average of at least 2 runs unless annotated n = 1, read-out: IC50.
In the case of `O=C(NCc1ccc(Cl)cc1)c1nc(-c2cc(Cl)c(O)c(Cl)c2)no1` [128a, N-(4-chlorobenzyl)-3-(3,5-dichloro-4-hydroxyphenyl)-1,2,4-oxadiazole-5-carboxamide], the IC50 amounted to 12.8 µM.

As for `O=C(NCc1ccccc1C(F)(F)F)c1noc(-c2cc(Cl)c(O)c(Cl)c2)n1` [88a, 5-(3,5-dichloro-4-hydroxyphenyl)-N-(2-(trifluoromethyl)benzyl)-1,2,4-oxadiazole-3-carboxamide], the IC50 is 6.2 µM.

In the case of `O=C(NCc1cc(F)c(F)c(F)c1)c1noc(-c2cc(Cl)c(O)c(Cl)c2)n1` [118a, 5-(3,5-dichloro-4-hydroxyphenyl)-N-(3,4,5-trifluorobenzyl)-1,2,4-oxadiazole-3-carboxamide], the half-inhibitory concentration (IC50) worked out at 5.67 µM.

For `O=C(NCc1ccc(Oc2cccc(Cl)c2)cc1)c1nc(-c2cc(Cl)c(O)c(Cl)c2)no1` [179a, N-(4-(3-chlorophenoxy)benzyl)-3-(3,5-dichloro-4-hydroxyphenyl)-1,2,4-oxadiazole-5-carboxamide], the IC50 was 10.7 µM.

Turning to `CN(Cc1cccc(Oc2ccccc2)c1)C(=O)c1nc(-c2cc(Cl)c(O)c(Cl)c2)no1` [144a, 3-(3,5-dichloro-4-hydroxyphenyl)-N-methyl-N-(3-phenoxybenzyl)-1,2,4-oxadiazole-5-carboxamide], the IC50 was 6.33 µM.

Regarding `CN(Cc1cccc(-c2ccncc2)c1)C(=O)c1nc(-c2cc(Cl)c(O)c(Cl)c2)no1` [175a, 3-(3,5-dichloro-4-hydroxyphenyl)-N-methyl-N-(3-(pyridin-4-yl)benzyl)-1,2,4-oxadiazole-5-carboxamide], the IC50 was 6.78 µM.

With `O=C(NCCC(c1ccccc1)c1ccccc1)c1nc(-c2cc(Br)c(O)c(Br)c2)no1` [14a, 3-(3,5-dibromo-4-hydroxyphenyl)-N-(3,3-diphenylpropyl)-1,2,4-oxadiazole-5-carboxamide], the IC50 amounted to 8.92 µM.

For `O=C(NCc1cccc(-c2ncccn2)c1)c1nc(-c2cc(Cl)c(O)c(Cl)c2)no1` [147a, 3-(3,5-dichloro-4-hydroxyphenyl)-N-(3-(pyrimidin-2-yl)benzyl)-1,2,4-oxadiazole-5-carboxamide], the 50% inhibitory concentration (IC50) amounted to 29.9 µM.

With `O=C(NCc1ccc(Cn2cccn2)cc1)c1noc(-c2cc(Cl)c(O)c(Cl)c2)n1` [156a, N-(4-((1H-pyrazol-1-yl)methyl)benzyl)-5-(3,5-dichloro-4-hydroxyphenyl)-1,2,4-oxadiazole-3-carboxamide], the IC50 was 20.9 µM.

As for `O=C(c1nc(-c2cc(Br)c(O)c(Br)c2)no1)N1CCN(c2cccc(C(F)(F)F)c2)CC1` [6a, (3-(3,5-dibromo-4-hydroxyphenyl)-1,2,4-oxadiazol-5-yl)(4-(3-(trifluoromethyl)phenyl)piperazin-1-yl)methanone], the IC50 stood at 6.19 µM.
